Assays:
SbMAX1c = target: T1, SbMAX1c (Sorghum bicolor, UniProt A0A809Q895); assay: yeast microsome conversion, LC-MS/MS; assay type: biochemical; conditions: 33 μM rac-CL, 500 μM NADPH, 28°C, 1 h
T1 sequence (A0A809Q895 1-545): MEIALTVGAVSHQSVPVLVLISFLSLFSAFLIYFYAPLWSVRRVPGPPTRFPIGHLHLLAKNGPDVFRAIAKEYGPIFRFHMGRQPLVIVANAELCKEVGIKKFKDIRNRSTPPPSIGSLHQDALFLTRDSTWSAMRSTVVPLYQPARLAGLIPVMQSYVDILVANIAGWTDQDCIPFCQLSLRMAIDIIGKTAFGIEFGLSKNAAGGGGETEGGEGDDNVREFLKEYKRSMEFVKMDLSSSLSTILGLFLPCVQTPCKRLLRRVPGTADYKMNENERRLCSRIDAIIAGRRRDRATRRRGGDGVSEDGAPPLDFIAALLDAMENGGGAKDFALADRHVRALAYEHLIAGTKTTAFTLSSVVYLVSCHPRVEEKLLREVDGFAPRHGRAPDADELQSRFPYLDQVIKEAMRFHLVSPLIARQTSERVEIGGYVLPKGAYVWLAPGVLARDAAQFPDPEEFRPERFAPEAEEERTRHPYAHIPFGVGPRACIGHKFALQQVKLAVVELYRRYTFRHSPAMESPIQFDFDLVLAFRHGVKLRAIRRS

SbMAX1d = target: T2, SbMAX1d (Sorghum bicolor, UniProt A0A809QVY0); assay: yeast microsome conversion, LC-MS/MS; assay type: biochemical; conditions: 33 μM rac-CL, 500 μM NADPH, 28°C, 1 h
T2 sequence (A0A809QVY0 1-539): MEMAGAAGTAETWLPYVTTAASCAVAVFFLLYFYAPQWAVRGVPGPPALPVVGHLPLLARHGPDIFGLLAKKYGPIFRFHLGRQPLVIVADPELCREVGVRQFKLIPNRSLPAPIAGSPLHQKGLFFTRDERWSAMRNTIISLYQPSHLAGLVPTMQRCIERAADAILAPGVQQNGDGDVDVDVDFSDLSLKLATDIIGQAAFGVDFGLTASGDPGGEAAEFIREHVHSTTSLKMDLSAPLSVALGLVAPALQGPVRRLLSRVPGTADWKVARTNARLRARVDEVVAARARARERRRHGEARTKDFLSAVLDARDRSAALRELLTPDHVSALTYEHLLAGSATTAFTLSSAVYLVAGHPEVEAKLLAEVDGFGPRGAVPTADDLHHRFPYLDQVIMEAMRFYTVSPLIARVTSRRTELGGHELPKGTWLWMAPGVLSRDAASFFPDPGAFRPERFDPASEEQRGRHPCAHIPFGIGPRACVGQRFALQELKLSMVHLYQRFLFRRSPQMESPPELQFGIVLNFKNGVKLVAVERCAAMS

## CC1=CC(O/C=C(C)\C=C\C2=C(C)CCCC2(C)C)OC1=O (racemic) [rac‐CL]
SbMAX1c
  yeast microsome conversion, LC-MS/MS: expressing SbMAX1b, SbMAX1c, or SbMAX1d after incubation with rac‐CL
SbMAX1d
  yeast microsome conversion, LC-MS/MS: expressing SbMAX1b, SbMAX1c, or SbMAX1d after incubation with rac‐CL

— paper PMC9292024 (The New Phytologist, 2021)
